In patent US12042486B2, “Use of bulleyaconitine A” (YUNNAN HAOPY PHARMACEUTICALS LTD, priority 2018, dated 2024):
“And” between values parts separate entries of the source, which are not always exact repeats. Identical values can stand only once.

Tests used:
Format in all cases: in vivo, mouse
[1] = Observation of drowsiness or other side effects in mice of the itch experiments
Text: (§1) 6-8 weeks old C57 mice were employed in experiments (body weight of 17-20 grams, from the Experimental Animal Center of Sun Yat-Sen University). The mice were randomly divided into four groups, namely solvent+histamine control group, BLA+histamine group, solvent+chloroquine control group and BLA+chloroquine group. For the convenience of subcutaneous injection and observation of scratching, the hair around the neck and back (at least 3×5 cm) was shaved off under temporary anesthesia with isoflurane three days before the start of the experiments. The control group was given a subcutaneous injection of 50 μl of histamine (2 mg/ml) or chloroquine (4 mg/ml), with an intragastric administration of a solvent (carboxymethyl cellulose) 2 hours before the injection. The experiment group was given an intragastric administration of BLA with different dosages (0.125, 0.25 and 0.5 mg/kg), 2 hours before the injection of histamine or chloroquine. The BLA was administered 2 hours in advance, because it needs 1.5-2 hours for BLA to take effect from its intragastric administration. The number of scratching in each group was counted within 30 minutes for comparison, because the acute scratching response induced by histamine or chloroquine subsided 30 minutes later after drug injection as shown by previous studies.
BLA inhibited the itch caused by histamine or chloroquine in a manner of depending on the dosage of intragastric administration.

[2] = test system: acute itch caused by chloroquine; test: Acute itch model: scratching of mice after subcutaneous chloroquine, BLA given intragastrically 2 h before; conditions: for Number of scratching in mouse in the chloroquine group (single animals): between 2 and 2.5 hours after BLA (30 min), individual mouse; for Number of scratching in mouse in the chloroquine group, average number: 30 min, solvent group 92.565556
Text: (§2) Researches over the years have shown that itch is mainly transmitted by two types of C fibers, with one sensitive to histamine and the other to chloroquine. Therefore, the scratching response of animals caused by subcutaneous injection of histamine or chloroquine is internationally recognized as an acute itch model. The present disclosure is aimed to investigate whether the intragastric administration of bulleyaconitine A (BLA) can inhibit acute itch caused by histamine or chloroquine.
as §1
(§3) During the recording in experiment, the mice were placed in separate, transparent acrylic boxes having a size of 15×15×20 cm each, and with two small openings at top of each box to allow air to circulate. The scratching behavior was recorded as video by a camera, which was placed above mouse because their behaviors of scratching their back or neck mostly happen in an angle of view directly opposite to their upper back.
(§4) In order to minimize attentional shift and eliminate tension as much as possible, each transparent box was supplied with a small amount of padding, to absorb any urine excreted from the mouse. The ambient temperature was kept at 23-27° C., and additionally all the staff were asked to leave during the recording to keep the experimental environment quiet. The experiment was carried out between 9:00-14:00 h. To acclimatize the animals to the test environment, the mouse had been acclimatized in the transparent box for one hour at 9:00 and 13:00 every day since two days before the formal experiment. Because the scratching of a mice often happens quickly, the action from mice starting to scratch its neck or back by its hind paw until the hind paw hitting on the ground or being put into its mouth to clean the dander is taken as one scratching behavior.
(§5) Statistical methods: the number of scratching was represented by average value±standard deviation, and Turkey test was employed to compare the difference between different groups.
(§6) Solution preparation and application method: 0.05 g of BLA was weighed and dissolved in 1000 ml of 0.5% sodium carboxymethyl cellulose solution. Histamine and chloroquine were prepared with 0.9% sterile saline, to make a dosage of histamine 100 μg and chloroquine 200 μg. To minimize the skin injure at the injection site, a thinner needle in 0.3 ml for insulin was connected to the needle port of the microinjector to reduce injure to mouse.

[3] = test system: acute itch caused by histamine; test: Acute itch model: scratching of mice after subcutaneous histamine, BLA given intragastrically 2 h before; conditions: for Number of scratching in mouse in the histamine group (single animals): between 2 and 2.5 hours after BLA (30 min), individual mouse; for Number of scratching in mouse in the histamine group, average number: 30 min, solvent group 36.56667
Text: as §2, §1, §3, §4, §5, §6

[4] = 0.5 mg/kg intragastric, P<0.001 vs solvent group
[5] = oral administration, 0.125-0.5 mg/kg

**Q.** For `CCN1C[C@]2(COC)CC[C@H](OC)[C@]34C1[C@H]([C@H](OC)[C@H]23)[C@@]1(OC(C)=O)C[C@H](OC)[C@]2(O)C[C@@H]4[C@@H]1[C@H]2OC(=O)c1ccc(OC)cc1` [BLA, Bulleyaconitine A], which “Drowsiness or other side effects in mouse” value ([1]; 0.125 mg/kg intragastric) is on record?
**A.** no drowsiness or other side effects in mouse was observed

**Q.** And the “Drowsiness or other side effects in mouse” value ([1]; 0.25 mg/kg intragastric)?
**A.** no drowsiness or other side effects in mouse was observed

**Q.** And the Drowsiness in mouse ([1]; 0.5 mg/kg intragastric)?
**A.** drowsiness in mouse was observed

**Q.** And the “Number of scratching in mouse in the chloroquine group (single animals)” value ([2]; 0.125 mg/kg BLA intragastric + chloroquine s.c.)?
**A.** 29 and 70 and 90 and 31 and 115 and 185 and 89 and 40 and 130 and 23 and 197 and 24 (2×) and 53 and 10 and 182 and 27 and 26 and 138 and 48 and 41 and 62 and 34 and 93 and 45

**Q.** What about the “Number of scratching in mouse in the chloroquine group, average number” value ([2]; 0.125 mg/kg BLA intragastric + chloroquine, n=25) of the same compound?
**A.** 72.24

**Q.** What about the “Inhibition of acute itch caused by chloroquine (in words)” value ([2]; 0.125 mg/kg intragastric, P>0.05, not statistically significant) of the same compound?
**A.** only had slightly inhibitory effect

**Q.** What about the “Number of scratching in mouse in the chloroquine group (single animals)” value ([2]; 0.25 mg/kg BLA intragastric + chloroquine s.c.) of the same compound?
**A.** 43 and 75 (2×) and 136 and 0 (3×) and 33 and 101 and 25 (2×) and 38 and 26 and 30 and 78 (3×) and 34 and 37 and 10 and 64 and 118 and 53 and 17 and 23 and 143 and 80 and 47

**Q.** And the “Number of scratching in mouse in the chloroquine group, average number” value ([2]; 0.25 mg/kg BLA intragastric + chloroquine, n=28)?
**A.** 52.39

**Q.** What about the “Inhibition of scratching response caused by chloroquine (in words)” value ([2]; 0.25 mg/kg intragastric, P<0.01 vs solvent group) of the same compound?
**A.** significantly inhibited

**Q.** What about the “Number of scratching in mouse in the chloroquine group (single animals)” value ([2]; 0.5 mg/kg BLA intragastric + chloroquine s.c.) of the same compound?
**A.** 0 (13×) and 27 and 20 and 23

**Q.** And the “Number of scratching in mouse in the chloroquine group, average number” value ([2]; 0.5 mg/kg BLA intragastric + chloroquine, n=16)?
**A.** 4.3875

**Q.** What about the “Inhibition of acute itch caused by chloroquine (in words)” value [2, 4] of the same compound?
**A.** completely inhibited

**Q.** And the “Dose dependence of inhibition of itching caused by chloroquine” value [2, 5]?
**A.** in a dosage-dependent manner

**Q.** What about the “Number of scratching in mouse in the histamine group (single animals)” value ([3]; 0.125 mg/kg BLA intragastric + histamine s.c.) of the same compound?
**A.** 22 and 33 and 0 and 18 (2×) and 47 and 43 (3×) and 77 and 60 and 46 (2×) and 42 and 16 and 21 and 87 and 26 and 17 and 38 (3×) and 37 and 3 and 84 and 35 and 64 and 52 and 6 and 25

**Q.** And the “Number of scratching in mouse in the histamine group, average number” value (“Number … in the histamine group, average number” for short) ([3]; 0.125 mg/kg BLA intragastric + histamine, n=30)?
**A.** 37.5

**Q.** What about the “Inhibition of itching caused by histamine (in words)” value ([3]; 0.125 mg/kg intragastric) of the same compound?
**A.** did not inhibit

**Q.** And the “Number … in the histamine group, average number” value ([3]; 0.25 mg/kg BLA intragastric + histamine, n=38)?
**A.** 24.76

**Q.** And the “Inhibition of scratching response caused by histamine (in words)” value ([3]; 0.25 mg/kg intragastric, P<0.05 vs solvent group)?
**A.** significantly inhibited

**Q.** And the “Number of scratching in mouse in the histamine group (single animals)” value ([3]; 0.5 mg/kg BLA intragastric + histamine s.c.)?
**A.** 0 (12×) and 50 and 38 and 48 and 26

**Q.** What about the “Number … in the histamine group, average number” value ([3]; 0.5 mg/kg BLA intragastric + histamine, n=16) of the same compound?
**A.** 10.1325

**Q.** And the “Inhibition of acute itch caused by histamine (in words)” value [3, 4]?
**A.** completely inhibited

**Q.** What about the “Dose dependence of inhibition of itching caused by histamine” value [3, 5] of the same compound?
**A.** in a dosage-dependent manner
